From PMC5384110 (European journal of medicinal chemistry, 2017) come the findings set out here.

Common to all, as to type: biochemical, HIV-1
Experiment [1] deals with HIV integrase strand transfer (INST) (Human immunodeficiency virus type 1 group M subtype B, UniProt P04585). In words: INST assay.
The next experiment concerns the target RT mutant Y181C (Human immunodeficiency virus type 1 group M subtype B, UniProt P04585, Y768C). In words: RT pol assay against RT mutant Y181C.
In the next experiment the target is RT mutant K103N (Human immunodeficiency virus type 1 group M subtype B, UniProt P04585, K690N). In words: RT pol assay against RT mutant K103N.
Another experiment has as its target HIV RT pol (Human immunodeficiency virus type 1 group M subtype B, UniProt P04585). In words: RT pol assay. As to conditions: Table 1; mean ± SD, at least two independent experiments.
For another experiment, the target named is HIV RT RNase H (Human immunodeficiency virus type 1 group M subtype B, UniProt P04585). In words: RNase H assay. As to conditions: read-out: RT IC50 RNH; Table 2; 3-deoxy precursor 11; tested up to 10 μM.

What is called IC50 is the concentration needed to halve the response being measured. On to `CC(C)c1c(CC2CCCCC2)n(COCc2ccc(F)cc2)c(=O)n(O)c1=O` [4b, 6-(Cyclohexylmethyl)-1-(((4-fluorobenzyl)oxy)methyl)-3-hydroxy-5-isopropylpyrimidine-2,4(1H,3H)-dione], for which, in experiment [1], the IC50 is > 100 µM.
The same measure, in the same setting: the same measure for `Cc1c(CC2CCCCC2)n(COCc2ccc(F)c(F)c2)c(=O)n(O)c1=O` [4k, 6-(Cyclohexylmethyl)-1-(((3,4-difluorobenzyl)oxy)methyl)-3-hydroxy-5-methyl pyrimidine-2,4(1H,3H)-dione]: > 100 µM.
On the same count and under the same terms, the same measure for `CCc1c(CC2CCCCC2)n(COCc2ccc(F)cc2)c(=O)n(O)c1=O` [4d, 6-(Cyclohexylmethyl)-5-ethyl-1-(((4-fluorobenzyl)oxy)methyl)-3-hydroxypyrimidine-2,4(1H,3H)-dione]: > 100 µM.
As to `CC(C)c1c(CC2CCCCC2)n(COCc2ccccc2)c(=O)n(O)c1=O` [4a, 1-((Benzyloxy)methyl)-6-(cyclohexylmethyl)-3-hydroxy-5-isopropylpyrimidine-2,4(1H,3H)-dione], the 50% inhibitory concentration (IC50) is > 10 µM at RT mutant Y181C, > 100 µM in experiment [1] and > 10 µM against RT mutant K103N.
As to `CCc1c(CC2CCCCC2)n(COCc2ccccc2)c(=O)n(O)c1=O` [4c, 1-((Benzyloxy)methyl)-6-(cyclohexylmethyl)-5-ethyl-3-hydroxypyrimidine-2,4(1H,3H)-dione], the IC50 in experiment [1] was > 100 µM.
As to `Cc1c(CC2CCCCC2)n(COCCc2ccc(F)cc2)c(=O)n(O)c1=O` [4m, 6-(Cyclohexylmethyl)-1-((4-fluorophenethoxy)methyl)-3-hydroxy-5-methyl pyrimidine-2,4(1H,3H)-dione], the IC50 in experiment [1] was > 100 µM.
Same read-out and setting: the same measure for `Cc1c(CC2CCCCC2)n(COCc2ccccc2)c(=O)n(O)c1=O` [4i, 1-((Benzyloxy)methyl)-6-(cyclohexylmethyl)-3-hydroxy-5-methylpyrimidine-2,4(1H,3H)-dione]: > 100 µM.
With `CCc1c(CC2CCCCC2)n(COCc2ccc(F)c(F)c2)c(=O)n(O)c1=O` [4f, 6-(Cyclohexylmethyl)-1-(((3,4-difluorobenzyl)oxy)methyl)-5-ethyl-3-hydroxypyrimidine-2,4(1H,3H)-dione], the IC50 in experiment [1] was > 100 µM. Further, the “RT IC50 Pol” value at HIV RT pol is “did not inhibit RT pol”.
`CCc1c(CC2CCCCC2)n(COCc2ccc(C)cc2)c(=O)n(O)c1=O` [4h, 6-(Cyclohexylmethyl)-5-ethyl-3-hydroxy-1-(((4-methylbenzyl)oxy)methyl) pyrimidine-2,4(1H,3H)-dione]: the IC50 in experiment [1] is > 100 µM.
Same read-out and setting: the same measure for `Cc1c(CC2CCCCC2)n(COCc2cccc(Cl)c2F)c(=O)n(O)c1=O` [4j, 1-(((3-Chloro-2-fluorobenzyl)oxy)methyl)-6-(cyclohexylmethyl)-3-hydroxy-5-methylpyrimidine-2,4(1H,3H)-dione]: > 100 µM; for `CCc1c(CC2CCCCC2)n(COCc2ccc(C(F)(F)F)cc2)c(=O)n(O)c1=O` [4g, 6-(Cyclohexylmethyl)-5-ethyl-3-hydroxy-1-(((4-(trifluoromethyl)benzyl)oxy)methyl)pyrimidine-2,4(1H,3H)-dione]: > 100 µM; for `Cc1c(CC2CCCCC2)n(COCc2ccc(C(F)(F)F)cc2)c(=O)n(O)c1=O` [4l, 6-(Cyclohexylmethyl)-3-hydroxy-5-methyl-1-(((4-(trifluoromethyl)benzyl)oxy)methyl)pyrimidine-2,4(1H,3H)-dione]: > 100 µM.
For `CCc1c(CC2CCCCC2)n(COCc2cccc(Cl)c2F)c(=O)n(O)c1=O` [4e, 1-(((3-Chloro-2-fluorobenzyl)oxy)methyl)-6-(cyclohexylmethyl)-5-ethyl-3-hydroxypyrimidine-2,4(1H,3H)-dione], in experiment [1], the IC50 was > 100 µM.
For `CC(C)c1c(Cc2ccccc2)n(COCc2ccccc2)c(=O)[nH]c1=O` [compound 14, TNK-651], on HIV RT RNase H, the IC50 was > 10 µM.
